We go through 9 molecules from patent publication US9732044B2, “N-(pyrid-4-yl)amides and N-(pyrimidin-4-yl)amides and their pharmaceutical and cosmetic use” (GALDERMA RESEARCH & DEVELOPMENT, priority 2011, dated 2017).

One test deals with androgen receptor (AR) (Homo sapiens (Human), UniProt P10275). The test is described as follows: Androgen receptor transactivation test in PALM cell line (cross curves against methyl trienolone). It is filed as cell-based. The method, then:
This AR inhibiting activity was measured in a transactivation test by the dissociation constants KdR (rest), KdA (active), and Kdapp (apparent).
A compound may be said to be an AR inhibitor if it has a dissociation constant, Kdapp, of less than or equal to 1 μM, and a KdR/KdA ratio of less than or equal to 10 in a transactivation test.
The transactivation test is carried out in the cell line PALM (PC3 androgen receptor Luciferase MMTV), which is a stable transfectant containing the plasmids PMMTV-neo-Luc (reporter gene) and pSG5puro-AR.
In this study, the affinity of each test compound for the 2 states of the receptor (KdR and KdA) is determined together with the apparent Kd (KdApp). This constant depends upon the 2 Kd's (KdR and KdA), but also depends on the initial equilibrium of the receptor between the active state and rest state (L0) and on its expression rate. It is determined by the following formula: 1/KdApp=(L0/(1+L0))×(1/KdR)+(1/(1+L0))×(1/KdA)
In order to determine these constants, “cross curves” of the test compound against a reference agonist, methyl trienolone, are carried out on a 96-well plate. The test compound is used in 10 concentrations and the reference agonist in 7 concentrations.

The subject of test [1] is sebaceous gland of the ear of a Syrian hamster. The test is described as follows: In vivo animal model with reduction in the size of the sebaceous glands (Syrian hamster ear). Particulars: 1 g %/mL solution, topical on ear, daily for 24 days, compared to control (absolute ethanol). The text has this:
The model of the sebaceous gland of the ear of a Syrian hamster described by Plewig and Luderschmidt in J. Inv. Derm., (1977), pp. 171-176 is a classical tool for the in vivo study of the function of the sebaceous gland. In fact, the inner faces of the ear lobes of the hamster contain a high number of sebaceous glands described as being similar to those of human sebaceous follicles in terms of certain characteristics, including their morphology and response to androgens and anti-androgens. In fact the growth and lipogenesis of the sebaceous glands on the inner face of the ear of Syrian hamsters depend on the androgens. The anti-androgenic activity of test compounds can be easily evaluated by measuring the size of the sebaceous glands. Moreover, this model has been selected to evaluate the efficacy of the antagonists of the receptor to the androgens on the sebaceous gland.
Test compounds were evaluated according to the following protocol: male hamsters aged weeks were treated daily for 24 days on the inner face of the right ear with 30 μL of a solution of the test compound to be evaluated in absolute ethanol. For each test compound, groups were treated with solutions at a range of concentrations (e.g., from 0.01 g %/mL to 3 g %/mL), as well as absolute ethanol used as a control. (A concentration of 3 g %/mL means a concentration of 0.03 g/mL.)
At the end of the study, samples were taken from the treated ears. The skin of the inner face of the ear was separated from the cartilage. Under a binocular magnifying glass, two zones of 4 mm^2 were numbered. The size of the sebaceous glands was measured on the numerical images by manually trimming the glands by means of image analysis software (TINA.20). For each image some twenty glands were measured. The average area of the sebaceous glands was calculated for each treatment group.
A Student t-test for independent groups comparing each dose with vehicle was carried out to compare the average size of the sebaceous glands as a function of the doses applied. When the evolution of the effect is represented graphically as a function of the administered dose of test compound, the curve obtained is sigmoid in shape. In the median part, this sigmoid may be likened to a straight line. The dose corresponding to 50% of the maximum effect corresponds graphically to the point located in the centre of the linear section defined as “effective dose 50”. This DE50 characterises the potency of the test compound.

[2] abbreviates: Kdapp, threshold lists, PALM cells.
Where [3] appears, read: threshold lists, PALM cells, read-out: Kdapp.
[4] abbreviates: apparent dissociation constant, PALM cells (PC3 androgen receptor Luciferase MMTV), read-out: Kdapp.

Structures are written as SMILES. Where two headings read alike, the source gives them in different places. A value given as a limit tells only on which side of the number the result lay.

Sequence of androgen receptor (AR) (P10275 whole entry): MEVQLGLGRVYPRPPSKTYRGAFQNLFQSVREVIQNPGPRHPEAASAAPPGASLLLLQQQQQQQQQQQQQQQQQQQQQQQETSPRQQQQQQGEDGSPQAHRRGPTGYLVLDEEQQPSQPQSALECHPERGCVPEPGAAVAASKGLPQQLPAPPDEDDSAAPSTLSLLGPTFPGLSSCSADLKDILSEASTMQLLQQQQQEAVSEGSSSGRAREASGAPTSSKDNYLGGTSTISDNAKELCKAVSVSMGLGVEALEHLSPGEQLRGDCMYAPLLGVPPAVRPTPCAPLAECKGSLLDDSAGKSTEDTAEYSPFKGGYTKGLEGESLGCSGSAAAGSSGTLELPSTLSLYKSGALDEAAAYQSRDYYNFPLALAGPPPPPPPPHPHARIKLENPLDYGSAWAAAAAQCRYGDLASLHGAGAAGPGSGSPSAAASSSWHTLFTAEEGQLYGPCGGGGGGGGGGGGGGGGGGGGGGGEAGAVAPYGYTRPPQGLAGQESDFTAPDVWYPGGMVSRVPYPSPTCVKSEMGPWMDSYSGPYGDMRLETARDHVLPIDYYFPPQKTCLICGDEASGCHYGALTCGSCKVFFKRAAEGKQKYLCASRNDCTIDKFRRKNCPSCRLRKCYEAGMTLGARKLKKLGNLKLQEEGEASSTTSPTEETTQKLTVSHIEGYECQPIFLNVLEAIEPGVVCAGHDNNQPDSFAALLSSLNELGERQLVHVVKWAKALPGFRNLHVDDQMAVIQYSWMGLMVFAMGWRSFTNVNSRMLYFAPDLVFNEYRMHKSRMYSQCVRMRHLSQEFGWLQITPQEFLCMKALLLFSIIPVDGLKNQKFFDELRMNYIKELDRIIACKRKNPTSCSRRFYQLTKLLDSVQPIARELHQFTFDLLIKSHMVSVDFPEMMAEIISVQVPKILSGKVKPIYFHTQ

Turning to `COc1cc(NC(=O)C(O)(C(C)C)C(C)C)cc(Br)n1` [Compound 68, N-(2-Bromo-6-methoxy-pyridin-4-yl)-2-hydroxy-2-isopropyl-3-methyl-butyramide], at androgen receptor (AR) (setting [2]), the Kd was ≤ 30 nM. In addition, the “Reduction of sebaceous glands (following treatment at 1 g %/mL)” value in test [1] was 57%.

With `CCCC(O)(C(=O)Nc1cc(Br)nc(OC)c1)C(C)C` (stereo not drawn) [Compound 79A, 2-Hydroxy-2-isopropyl-pentanoic acid (2-bromo-6-methoxy-pyridin-4-yl)-amide], at androgen receptor (AR) (setting [3]), the Kd was ≤ 30 nM. In addition, the “Reduction of sebaceous glands (following treatment at 1 g %/mL)” value in test [1] is 48%.

As to `CCCC(C)(O)C(=O)Nc1ccnc(Br)c1` (stereo not drawn) [Compound 1, 2-Hydroxy-2-methyl-pentanoic acid (2-bromo-pyridin-4-yl)-amide], the results for the Kd at androgen receptor (AR) (setting [4]) and on androgen receptor (AR) (setting [3]) were 75 nM and ≤ 100 nM, respectively. In addition, the “Reduction of sebaceous glands (following treatment at 1 g %/mL)” value in test [1] is 53%.

As to `CC(O)(CCc1ccccc1)C(=O)Nc1ccnc(Br)c1` (stereo not drawn) [Compound 43, N-(2-Bromo-pyridin-4-yl)-2-hydroxy-2-methyl-4-phenyl-butyramide], the Kd on androgen receptor (AR) (setting [2]) is ≤ 100 nM; on androgen receptor (AR) (setting [4]), 100 nM. In addition, in test [1], the “Reduction of sebaceous glands (following treatment at 1 g %/mL)” value is given as 44%.

Regarding `CCCCC(C)(O)C(=O)Nc1cc(Br)nc(OC)c1` (stereo not drawn) [Compound 8, 2-Hydroxy-2-methyl-hexanoic acid (2-bromo-6-methoxy-pyridin-4-yl)-amide], the Kd on androgen receptor (AR) (setting [4]) was 30 nM; on androgen receptor (AR) (setting [3]), ≤ 30 nM. Besides, the “Reduction of sebaceous glands (following treatment at 1 g %/mL)” value in test [1] came out at 56%.

With `COc1cc(NC(=O)C(C)(O)CC(C)C)cc(Br)n1` (single isomer, unassigned) [Compound 71B], the Kd at androgen receptor (AR) (setting [3]) is ≤ 30 nM. Further, in test [1], the “Reduction of sebaceous glands (following treatment at 1 g %/mL)” value came out at 56%.

Take `CCCC(C)(O)C(=O)Nc1cc(Br)nc(OC)c1` (stereo not drawn) [Compound 78B, 2-Hydroxy-2-methyl-pentanoic acid (2-bromo-6-methoxy-pyridin-4-yl)-amide]: the Kd on androgen receptor (AR) (setting [3]) is ≤ 100 nM. The “Reduction of sebaceous glands (following treatment at 1 g %/mL)” value in test [1] turned out to be 50%.

Consider `CCCCC(C)(O)C(=O)Nc1ccnc(Br)c1` (single isomer, unassigned) [Compound 80A, 2-Hydroxy-2-methyl-hexanoic acid (2-bromo-pyridin-4-yl)-amide], for which the Kd on androgen receptor (AR) (setting [3]) was ≤ 100 nM. Also, the “Reduction of sebaceous glands (following treatment at 1 g %/mL)” value in test [1] worked out at 51%.

As for `CCCCC(C)(O)C(=O)Nc1cc(Br)nc(OC)c1` (stereo not drawn) [Compound 72B, 2-Hydroxy-2-methyl-hexanoic acid (2-bromo-6-methoxy-pyridin-4-yl)-amide], the Kd at androgen receptor (AR) (setting [3]) was ≤ 100 nM. Also, in test [1], the “Reduction of sebaceous glands (following treatment at 1 g %/mL)” value was determined as 46%.
